Data taken from PMC12434521, “Characterization of Next-Generation Inhibitors for the Inward-Rectifier Potassium Channel Kir2.1: Discovery of VU6080824” (ACS Medicinal Chemistry Letters, 2025).
Where two headings read alike, the source gives them in different places.

Experiment: Rat PK PBL cassette (i.v.)
Type: in vivo, Sprague-Dawley rat
Details: for Kp (total brain to plasma ratio) / AUC / CLp / Elim. t1/2 / MRT / Vss / Kp at 0.25 h / clearance / half-life / Vd: male SD rat, 0.2 mg/kg i.v. cassette; for Kp (total brain to plasma ratio) / Kp at 0.25 h: 0.25 time point (15 min post dosing); for AUC / CLp / Elim. t1/2 / MRT / Vss / clearance / half-life / Vd: n = 1; for Kp at 0.25 h: brain and plasma, read-out: Kp (total brain to plasma ratio); for clearance: read-out: CLp; for half-life: read-out: Elim. t1/2 (converted); for Vd: read-out: Vss
Description: While ML133 has found use as a Kir2.1 tool molecule across many disease models, the in vivo PK of this and related compounds within the dibenzylamine chemotype have not previously been characterized. As a highly efficient method for profiling the PK of a compound set, we therefore examined ML133 (alongside 9 additional next-generation Kir2.1 inhibitors) in our rat PK PBL cassette dosing platform (Table ). − From this experimental setup, administration of a 4-compound bolus dose, plus a standard control, can be used to determine a variety of PK parameters in a high-throughput fashion. Specifically, Sprague–Dawley (SD) rats were given 0.2 mg/kg of each Kir2.1 inhibitor (i.v. dosing, 4 compounds +1 control, total dose 1 mg/kg) with PK measured across set time points up to 24 h. Additionally, a separate cohort of animals was utilized to assess total plasma-brain levels (PBL, ratio reported as Kp) of compound at a 0.25 time point. In this fashion, standard plasma-based PK parameters (elimination t 1/2, […] (MRT), plasma clearance (CLp), and volume of distribution (Vss)) were measured alongside a parallel assessment of total brain exposure.
PK PBL Cassette Experimental Conditions
4 compounds plus one control were formulated as a solution in ethanol, PEG400, and DMSO (1:3:6 v/v, respectively) at a concentration of 1 mg/mL and administered as a single IV dose (1 mL/kg, 0.2 mg/kg per compound, total 1 mg/kg) to male, Sprague Dawley rats (n = 1) via injection into a surgically -implanted jugular vein catheter. Blood samples were collected serially from a surgically implanted carotid artery catheter in each animal over multiple post -administration time points (0.033, 0.117, 0.25, 0.5, 1, 2, 4, 7, and 24 hours) into chilled, K 2EDTA anticoagulant - fortified tubes and immediately placed on wet ice. The blood samples were then centrifuged (1700 rcf, 5 minutes, 4 °C) to ob tain plasma samples, which were stored at -80 °C until analysis […]
For determination of the brain over plasma ratio (K p), the same cassette of compounds plus control were formulated in ethanol, PEG400, and DMSO (1:3:6 v/v, respectively) and administered as a single IV dose (1 mL/kg, 0.2 mg/kg per compound, total 1 mg/kg) to male, Sprague Dawley rats ( n = 1) via injection into a surgically-implanted jugular vein catheter. At 15 min post dosing, blood sample was collected terminally into chilled, K 2EDTA anticoagulant-fortified tube and immediately placed on wet ice. The bloo d sample was then centrifuged (1700 rcf, 5 minutes, 4 °C) to obtain plasma sample. At the same post-administration time point, whole brain sample was obtained by rapid dissection, rinsed with PBS, and immediately frozen in individual tissue collection box (dry ice). All brain and plasma samples were stored at -80 °C until […]
Samples preparation for bioanalysis
Plasma samples from the in-life phase of the study were thawed at ambient temperature (benchtop), and then aliquots (20 µL per sample) were transferred to a 96-shallow-well (V-bottom) plate. Matrix-matched quality control (QC) samples and a standard curve of each analyte (1 mg/mL DMSO stock solution) were prepared in blank rat plasma (K2EDTA-treated) via serial dilution and transferred (20 µL each) to the plate along with multiple blank plasma samples. MeCN (120 µL) containing IS (10 nM carbamazepine) was added to each well of the plate to precipitate protein. The plate was then centrifuged (4000 rcf, 5 minutes, ambient temperature), and resulting supernatants (60 µL each) were transferred to a new 96-shallow-well (V-bottom) plate containing an equal volume (60 µL per well) of water (Milli-Q purified). The plate was then sealed in preparation for LC-MS/MS analysis.
Preparation of brain samples was identical to that of plasma samples except for the following modifications. While thawing, brains were weighed (inside their collection boxes using a universal empty collection box tare weight) and then subjected to mechanical homogenization […]

[1] = Sprague-Dawley, plasma, iv, read-out: AUC
[2] = Sprague-Dawley, plasma, iv, read-out: MRT

Row | SMILES | Kp (total brain to plasma ratio) | AUC | CLp | Elim. t1/2 | MRT | Vss | Kp at 0.25 h (Sprague-Dawley, iv) | AUC [1] | clearance (Sprague-Dawley, plasma, iv) | half-life (Sprague-Dawley, plasma, iv) | MRT [2] | Vd (Sprague-Dawley, plasma, iv) | Fold longer t1/2 compared to ML133 (rat i.v. cassette) | Fold lower overall plasma clearance compared to ML133 (rat i.v. cassette)
1 | COc1ccc(CNCc2ccc(-c3cccc(C#N)c3)cc2)cc1 [Compound 5t] |  |  |  |  |  |  | 1.25 | 165 ng·h/mL | 20.2 mL/min/kg | 1.66 h | 0.99 h | 1.2 L/kg |  | 
2 | COc1ccc(CNCc2cccc(-c3ccccc3)c2)cc1 [Compound 5j] |  |  |  |  |  |  | 4.23 | 105 ng·h/mL | 31.7 mL/min/kg | 1.18 h | 1 h | 1.9 L/kg |  | 
3 | COc1ccc(CNCc2ccc(-c3cccc(OC)c3)cc2)cc1 [Compound 5s, 1-(3′-Methoxy-[1,1’-biphenyl]-4-yl)-N-(4-methoxybenzyl)methanamine] |  |  |  |  |  |  | 1.81 | 189 ng·h/mL | 17.7 mL/min/kg | 1.56 h | 0.99 h | 1.06 L/kg |  | 
4 | COc1ccc(CNCc2ccc(-c3ccccc3)cc2)cc1 [Compound 5k] |  |  |  |  |  |  | 1.82 | 148 ng·h/mL | 22.6 mL/min/kg | 1.68 h | 1.08 h | 1.46 L/kg |  | 
5 | COc1ccc(CNCc2ccc3c(c2)OC(F)(F)O3)cc1 [Compound 5h] |  |  |  |  |  |  | 2.13 | 110 ng·h/mL | 30.4 mL/min/kg | 1.33 h | 0.87 h | 1.58 L/kg |  | 
6 | [2H]C([2H])([2H])Oc1ccc(CNCc2cccc3ccccc23)cc1 [Compound 7] |  |  |  |  |  |  | 3.3 | 146 ng·h/mL | 22.8 mL/min/kg | 1.39 h | 1.24 h | 1.7 L/kg | ~2 fold | ~1.4 fold
7 | COc1ccc(CNCc2ccc(-c3cccc(F)c3)cc2)cc1 [Compound 5p] |  |  |  |  |  |  | 2.27 | 109 ng·h/mL | 30.6 mL/min/kg | 0.69 h | 0.76 h | 1.39 L/kg |  | 
8 | COc1ccc(CNCc2cccc3ccccc23)cc1 [ML133, N-(4-methoxybenzyl)-1-(naphthalen-1-yl)methanamine, reference compound] |  |  |  |  |  |  | 3.36 | 104 ng·h/mL | 31.9 mL/min/kg | 0.75 h | 0.78 h | 1.5 L/kg |  | 

The remaining lines, values ahead:

Row | Kp (total brain to plasma ratio) | AUC | CLp | Elim. t1/2 | MRT | Vss | Kp at 0.25 h (Sprague-Dawley, iv) | AUC [1] | clearance (Sprague-Dawley, plasma, iv) | half-life (Sprague-Dawley, plasma, iv) | MRT [2] | Vd (Sprague-Dawley, plasma, iv) | Fold longer t1/2 compared to ML133 (rat i.v. cassette) | Fold lower overall plasma clearance compared to ML133 (rat i.v. cassette) | SMILES
9 | 2.15 | 131 ng·h/mL | 25.4 mL/min/kg | 1.56 h | 1.02 h | 1.55 L/kg |  |  |  |  |  |  |  |  | [2H]C([2H])([2H])Oc1ccc(CNCc2ccc(-c3cccc(OC)c3)cc2)cc1 [Compound 9]
10 | 2.06 | 126 ng·h/mL | 26.4 mL/min/kg | 1.59 h | 1.00 h | 1.58 L/kg |  |  |  |  |  |  |  |  | [2H]C([2H])([2H])Oc1ccc(CNCc2ccc(-c3cccc(OC([2H])([2H])[2H])c3)cc2)cc1 [Compound 13]
11 | 1.94 | 127 ng·h/mL | 26.2 mL/min/kg | 1.54 h | 0.81 h | 1.27 L/kg |  |  |  |  |  |  |  |  | [2H]C([2H])([2H])Oc1cccc(-c2ccc(CNCc3ccc(OC)cc3)cc2)c1 [Compound 11]
